Experimental findings from US20250009748A1 (NAVIRE PHARMA, INC., priority 2021, published 2025) are described below.

What is called TGI is how far tumour growth fell short of that in controls.

“Also recorded” adds a separate entry of the source.

The nature of series [1]: Tolerability / body weight in NCI-H2122 study (Example 2). The protocol: Body weights (BW) were also recorded twice weekly. […] Mean body weight changes (±SEM) were recorded for group.
Experimental Endpoints. Animal health was monitored at least twice weekly through behavioral observations and weight checks. After tumor inoculation, the animals were checked daily for morbidity and mortality. During routine monitoring, the animals were checked for any effects of tumor growth and treatments on behavior such as mobility, food and water consumption, body weight gain/loss, eye/hair matting, and any other abnormalities.
Study endpoint was defined when animals reached one of the following criteria for euthanasia: ≥20% body weight loss at any time versus day 1, ≥15% body weight loss for 72 hours versus day 1, individual tumor volume of ≥3000 mm^3, or all mice in each group were euthanized when the mean tumor volume reached ≥2000 mm^3.

A short description of series [2]: LC-MS/MS plasma concentration of formula (10b) and Compound A at end of efficacy study (Example 1). Particulars: for concentration at 8 h / concentration at 2 h: NOD/SCID, mouse, plasma, oral; for concentration at 2 h: Compound A Plasma concentration. It is filed as in vivo, NOD/SCID mice. From the text: Blood collection for pharmacokinetic analysis. Blood from live animals for pharmacokinetic (PK) analyses was obtained via the retro-orbital sinus. The mouse was grasped firmly behind the ears and rotated slightly to one side so that a disposable, sterile microcapillary tube could be inserted behind the eyeball and gently rotated to break the sinus cavity. Blood flowed through the capillary tube, directly into a K2 EDTA tube (Jiangsu KangJian Medical Apparatus Corporation #044022) to a volume of 100 μL. Blood in the tube was inverted several times to distribute the EDTA evenly. To separate plasma, tubes were centrifuged in a bench top centrifuge (Eppendorf, Model 5424R) for 5 minutes at 8000 rpm without braking. The supernatant (plasma) was carefully transferred to a microcentrifuge tube and placed onto dry ice prior to storage at −80° C.
For plasma sample analysis, 20 μL of each sample was precipitated with 200 μL of acetonitrile containing Glipizide (100 ng/mL) as an internal standard. This suspension was vortexed for 1 min and centrifuged at 4,000 rpm for 10 min, after which 80 μL of the extract was aliquoted for LC-MS/MS analysis. LC-MS/MS analysis was conducted on a Shimadzu Nexera UHPLC system coupled with a Sciex 6500 TQ-S triple quadrupole mass spectrometer (MS/MS) operated at the positive mode (ESI+). […] The injection volume was 2 μL. The LC mobile phase A was 0.025% formic acid-water containing 1 mM ammonium acetate and B was 100% methanol containing 5 mM ammonium acetate. The gradient (% B) was 2% (0-0.4 min), 2-65% ([…]), 65-90% (0.7 to 1.3 min), 90% (1.3-1.9 min), 90-2% (1.9 to 1.91 min), 2% (1.91-2.5 min). The flow rate was 0.6 mL/min. The column temperature was 60° C.

Series [3] in a line: Tolerability (body weight, mouse loss) in NCI-H358 xenograft study (Example 1). Particulars: for Mean body weight change: Day 29, n = 10; for Mouse loss and observations: n = 8 mice/group.
Protocol: Dosing started ˜2 weeks post the subcutaneous implantation of the tumor cells. […] Tumor volume was measured twice a week. The body weight and tumor volume were captured in the StudyDirector software version 3.1.399.19 (StudyLog).
Data were analyzed using Microsoft Excel and GraphPad Prism 8.0. Day 0 was the day before treatment started.
BWi and BW0 are the body weight of an individual mouse on measurement day I and on day 0, respectively.
The test system of series [4] is NCI-H2122 subcutaneous cell line-derived tumors (NSCLC, KRAS G12C, KEAP1, STK11). In words: NCI-H2122 subcutaneous cell line-derived xenograft, formula (10b) and sotorasib (Example 2). Format: in vivo, BALB/c nude mice. Particulars: Day 21, n = 10; for TGI: Formula (10b) 100 mg/kg QD PO. From the text:
(§1) Tumor Cell Line Culture. […] Passage 9 NCI-H358 cells were thawed and expanded, and passage 13 cells were harvested for inoculations. […] Passage 6 NCI-H2122 cells were thawed and expanded, and passage 14 cells were harvested for inoculations.
(§2) Animal Inoculations and Randomization. All experiments were reviewed and approved by the Crown Bioscience, Inc., Institutional Animal Care and Use Committee (IACUC) prior to execution and performed in accordance with the regulations of the Association for Assessment and Accreditation of Laboratory Animal Care (AAALAC). […] Mice were randomized into four groups (10 mice/group) by tumor volume (size mm^3) 13 days post cell inoculation when the mean tumor volume was 160 mm^3. […] Mice were randomized into four groups (10 mice/group) by tumor volume (size mm^3) 9 days post cell inoculation when the mean tumor volume was 180 mm^3.
(§3) Tumor and Body Weight Measurements. […] Dosing as well as tumor and body weight measurements were conducted in a Laminar flow cabinet.
(§4) Statistical analyses. Statistical analyses were performed with GraphPad Prism software (version 9). For statistical analyses comparing the vehicle group to all other groups, two-way repeated-measures analysis of variance (ANOVA) followed by post hoc Tukey's multiple comparisons test of the means was applied over the indicated number of days. For statistical analyses comparing the monotherapy and combination groups, two-way repeated-measures ANOVA was performed between each monotherapy group mean and combination group mean over the number of indicated days. A p value of less than 0.05 was considered statistically significant.

Series [5] has as its system NCI-H358 subcutaneous cell line-derived tumors (NSCLC, KRAS G12C). The series can be described thus: NCI-H358 subcutaneous cell line-derived xenograft, formula (10b) and sotorasib (Example 2). It is filed as in vivo, NOD/SCID mice. Particulars: Day 29, n = 10; for Mean Tumor REG: Formula (10b) 100 mg/kg QD PO.
Text: as §1, §2, §3, §4
Female NOD/SCID mice were implanted subcutaneously with NSCLC NCI-H358 tumor cells. […] Mouse tumor volumes were measured twice weekly until day 34 and results are shown through day 29.

For series [6], the system named is NCI-H358 subcutaneous tumors (human NSCLC, KRAS G12C). The series can be described thus: NCI-H358 subcutaneous xenograft efficacy study, formula (10b) and Compound A (Example 1). Format: in vivo, NOD/SCID mice. Particulars: for Day 21 TGI: n = 8. From the text:
Cell lines. The NCI-H358 cell line was purchased from ATCC. It is a human NSCLC cell line, harboring heterozygous mutation of KRAS G12C.
Test animals. Female NOD/SCID mice (Beijing Anikeeper Biotech Co., Ltd) were utilized in this experiment. Animals were 6˜8 weeks of age at the time of xenograft implantation. The protocol and any amendment(s) or procedures involving the care and use of animals in this study was reviewed and approved by the Institutional Animal Care and Use Committee (IACUC) of Crown Bioscience Ltd. prior to execution. During the study, the care and use of animals was conducted in accordance with the regulations of the Association for Assessment and Accreditation of Laboratory Animal Care (AAALAC).
In vivo modeling, treatment and data analysis.
When the average tumor volume reached 250 mm^3, mice were randomized into groups of 8 based on both tumor volume and body weight.
Tumor volume was measured twice a week.
Day 0 was the day before treatment started.
Ti and Ci are the mean tumor volumes of the treatment and vehicle groups on the measurement day, respectively; C0 is the mean tumor volume of the vehicle group on day 0.
Tumor volume was monitored bi-weekly by caliper and body weights were recorded. Data presented in FIGS. 1A-1E represent mean±SEM, and N=8 mice/group for FIGS. 1B-1E and N=10 mice/group for FIG. 1A.

For the compound `Cc1c(N2CCC3(CC2)CO[C@@H](C)[C@H]3N)nc(C)n(-c2cccc(Cl)c2Cl)c1=O` (atropisomer, axis not shown; (Ra)) [Formula (10b), 6-((3S,4S)-4-amino-3-methyl-2-oxa-8-azaspiro[4.5]decan-8-yl)-3-(Ra)-(2,3-dichlorophenyl)-2,5-dimethylpyrimidin-4(3H)-one], the body weight loss entry in series [1] (formula (10b) 100 mg/kg QD monotherapy, several mice, group placed on diet gel day 11-21) was “over 10%”. Further, the “Formula (10b) Plasma concentration” value in series [2] (8 hours after final dose of formula (10b), Formula (10b) 50 mg/kg QD, mean ± SD, N = 4) stood at 4.44 ± 1.05 µM; in series [2] (8 hours after final dose of formula (10b), Formula (10b) 100 mg/kg QD, mean ± SD, N = 4), 7.54 ± 1.60 µM. Moreover, the “Compound A Plasma concentration” value is on record as “BQL” in series [2] (Formula (10b) 50 mg/kg QD alone, BQL = below quantitation limit (3 nM)) and “BQL” in series [2] (Formula (10b) 100 mg/kg QD alone, BQL = below quantitation limit (3 nM)). The concentration at 8 h came out at 4.4 µM in series [2] (50 mg/kg, 8 hours after final dose of formula (10b), Formula (10b) 50 mg/kg QD, mean ± SD, N = 4) and 7.5 µM in series [2] (100 mg/kg, 8 hours after final dose of formula (10b), Formula (10b) 100 mg/kg QD, mean ± SD, N = 4). Further, the “Mean body weight change” value in series [3] (Formula (10b) 100 mg/kg QD) is −6.5%. Further, the “Mouse loss and observations” value is “Day 3 (BWL); also recorded: Day 12 (BWL); also recorded: Day 19 (BWL)” in series [3] (Formula (10b) 50 mg/kg QD, each event = one mouse, BWL = body weight loss) and “Day 18 (Found dead); also recorded: Day 21 (Found dead)” in series [3] (Formula (10b) 100 mg/kg QD, each event = one mouse). For the same compound, the “Mean Tumor Volume (±SEM)” value in series [4] (Formula (10b) 100 mg/kg QD PO day 1-21) is 590 (±48) mm^3; in series [5] (Formula (10b) 100 mg/kg QD PO day 1-28), 138 (±17) mm^3. The TGI in series [4] and in series [4] (listed as formula (10b)) was 58% each time. The “Mean Tumor REG” value in series [5] and in series [5] (listed as formula (10b)) was 14% in each case. This compound returned a Mean tumor regression in series [6] (Day 29, Formula (10b) 100 mg/kg QD PO, n = 10, FIG. 1A) of 14%. Also, in series [6] (Day 29, Formula (10b) 100 mg/kg QD, n = 10), the Number of regressions was 8/10. Also, the “Day 21 TGI” value in series [6] (Formula (10b) 50 mg/kg QD PO) is 46%; in series [6] (Formula (10b) 50 mg/kg QD PO, listed as formula (10b)), 46%; in series [6] (Formula (10b) 100 mg/kg QD PO) it was 89%; in series [6] (Formula (10b) 100 mg/kg QD PO, listed as formula (10b)) it was 89%. The “effect on growth of NCI-H358 tumors (in words)” value in series [6] (formula (10b) monotherapy at 100 mg/kg QD) is “approximately tumor stasis”.

Consider `C=CC(=O)N1CCN(c2nc(=O)n(-c3c(C)ccnc3C(C)C)c3nc(-c4c(O)cccc4F)c(F)cc23)[C@@H](C)C1` [Compound A, 6-fluoro-7-(2-fluoro-6-hydroxyphenyl)-1-[4-methyl-2-(propan-2-yl)pyridin-3-yl]-4-[(2S)-2-methyl-4-(prop-2-enoyl)piperazin-1-yl]pyrido[2,3-d]pyrimidin-2(1H)-one, reference compound], for which the “Compound A Plasma concentration” value in series [2] (2 hours after final dose of Compound A, Compound A 30 mg/kg QD, mean ± SD, N = 4, 30 mg/kg) came out at 2.02 ± 0.31 µM; in series [2] (2 hours after final dose of Compound A, Compound A 100 mg/kg QD, mean ± SD, N = 4, 100 mg/kg), 8.77 ± 7.25 µM. Besides, the “Formula (10b) Plasma concentration” value in series [2] (Compound A 30 mg/kg QD alone, BQL = below quantitation limit (3 nM)) is given as “BQL”; in series [2] (Compound A 100 mg/kg QD alone, BQL = below quantitation limit (3 nM)), “BQL”. The concentration at 2 h in series [2] (30 mg/kg, 2 hours after final dose of Compound A, Compound A 30 mg/kg QD, mean ± SD, N = 4) turned out to be 2 µM; in series [2] (100 mg/kg, 2 hours after final dose of Compound A, Compound A 100 mg/kg QD, mean ± SD, N = 4) it was 8.8 µM. Also, the “Mouse loss and observations” value in series [3] (Compound A 30 mg/kg QD) is listed as “None”; in series [3] (Compound A 100 mg/kg QD, dosing day of removal), “None”. Further, the “Mean body weight change” value in series [3] (Compound A 10 mg/kg QD) is listed as −0.3%.

Turning to `C=CC(=O)N1CCN(c2nc(=O)n(-c3c(C)ccnc3C(C)C)c3nc(-c4c(O)cccc4F)c(F)cc23)[C@@H](C)C1` [Sotorasib, reference compound], in series [1] (sotorasib 100 mg/kg QD monotherapy, FIG. 3B), the “tolerability / impact on body weights” value is “well tolerated”.
